# pIC50: −log10 of the molar value. Where “and” joins values, the source holds several entries; their conditions need not be identical. Equal entries are not always repeated. Where two headings read alike, the source gives them in different places.
# Key:
# human SCLC OC—NYH cells = test: Alkaline elution assay (DNA breaks); assay type: cell-based
# Experimental: Alkaline elution assay was performed as described in Kohn et al., 1976 with modifications as described in Sehested et al., 1998. Briefly, to assess the ability of NSC 35866 to protect against etoposide-induced DNA breaks, cells were incubated with increasing concentrations of NSC 35866 for 10 minutes, before 3 μM etoposide was added to the samples. The cells were then co-incubated with 3 μM etoposide along with the same concentrations of NSC 35866 for 60 minutes. Some samples contained no etoposide in order to assess whether NSC 35866 induced DNA breaks by itself. After incubation with drug, cells were lysed and the DNA fragments eluted. DNA in the experimental OC—NYH cells was metabolically labelled by ^14C-thymidine incorporation while DNA in the internal control L1210 cells was metabolically labelled by ^3H-thymidine incorporation.
# FIG. 9 describes the results of studies of the ability of NSC 35866 to antagonise DNA breaks induced by etoposide in human SCLC OC—NYH cells in a dose dependent manner. Alkaline DNA elution was used to detect DNA fragmentation induced by 3 μM etoposide in the presence of increasing concentrations of NSC 35866 as described herein. H202 treated mouse leukemic L1210 cells were used as internal control for DNA fragmentation. The DNA of the experimental OC—NYH cells was ^14C-labelled while the DNA of the L1210 cells was 3H-labelled.
# [1] = target: T1, wild-type human topoisomerase II α (Homo sapiens, UniProt P11388); test: Topoisomerase II DNA strand passage assay (kDNA decatenation), wild-type enzyme; assay type: biochemical; details: wild-type enzyme
# T1 construct: made in house; host or cells: yeast (over-expressing yeast cells)
# Experimental: Topoisomerase II catalytic activity (DNA strand passage activity) was measured by using a filter-based kDNA decatenation assay as described in Jensen et al., 2002. Briefly, 200 ng ^3H labelled kDNA isolated from C. fasciculata was incubated with increasing concentrations of drug in 20 μL reaction buffer containing 10 mM TRIS-HCl pH 7.7, 50 mM NaCl, 50 mM KCl, 5 mM MgCl2, 1 mM EDTA, 15 μg/mL BSA and 1 mM ATP using two units of purified wild-type or Y165S mutant topoisomerase II α for 20 minutes at 37° C. (where one unit of activity is defined as the amount of enzyme required for complete decatenation in the absence of drug). After addition of 5× stop buffer (5% Sarkosyl, 0.0025% bromophenol blue, and 50% glycerol), unprocessed kDNA network and decatenated DNA mini-circles were separated by filtering, and the amount of unprocessed kDNA in each reaction was determined by scintillation counting.
# FIG. 2 describes the results of studies of the inhibition of topoisomerase II DNA strand passage activity by increasing concentrations of NSC 35866. Inhibition of human topoisomerase II α DNA strand passage activity was assessed by decatenation of tritium-labelled Crithidia fasiculata kDNA using a filter-based assay to separate unprocessed kDNA network from decatenated mini-circles. […] Error bars represent SEM of three independent experiments in panel A and two independent experiments in panel B.
# Inhibition of human topoisomerase II α DNA strand passage activity was determined by decatenation of tritium labelled Crithidia fasiculata kDNA as described for FIG. 2. Error bars represent SEM of 3 or 4 independent experiments.
# topoisomerase II α = topoisomerase II α (Homo sapiens, UniProt P11388); test: Topoisomerase II ATPase assay (coupled, NADH oxidation); assay type: biochemical; parameters: made in house; host or cells: yeast (over-expressing yeast cells)
# Experimental: The reaction was monitored spectrophotometrically at 340 nm using a Bio-Tek EL808 Ultra Micro plate Reader connected to a computer with KC4 Software installed (Bio-Tek Instruments, U.S.). The change in absorbance was related to ADP production using A340^1M=6220 cm^−1. […] The rate of ATP hydrolysis, V, was determined from the linear part of the curve.
# The steady-state rate of ATP hydrolysis was determined using a coupled ATPase assay as described herein. […] Error bars represent SEM of two independent experiments each performed in duplicate.
# The steady-state rate of ATP hydrolysis was determined as described in for FIG. 3 and as described herein. In this analysis, the rate of ATP hydrolysis in the absence of drug was set to one in all experiments. Error bars represent SEM of 2 or 3 independent experiments each preformed in duplicate.
# Chain of topoisomerase II α (P11388 whole entry): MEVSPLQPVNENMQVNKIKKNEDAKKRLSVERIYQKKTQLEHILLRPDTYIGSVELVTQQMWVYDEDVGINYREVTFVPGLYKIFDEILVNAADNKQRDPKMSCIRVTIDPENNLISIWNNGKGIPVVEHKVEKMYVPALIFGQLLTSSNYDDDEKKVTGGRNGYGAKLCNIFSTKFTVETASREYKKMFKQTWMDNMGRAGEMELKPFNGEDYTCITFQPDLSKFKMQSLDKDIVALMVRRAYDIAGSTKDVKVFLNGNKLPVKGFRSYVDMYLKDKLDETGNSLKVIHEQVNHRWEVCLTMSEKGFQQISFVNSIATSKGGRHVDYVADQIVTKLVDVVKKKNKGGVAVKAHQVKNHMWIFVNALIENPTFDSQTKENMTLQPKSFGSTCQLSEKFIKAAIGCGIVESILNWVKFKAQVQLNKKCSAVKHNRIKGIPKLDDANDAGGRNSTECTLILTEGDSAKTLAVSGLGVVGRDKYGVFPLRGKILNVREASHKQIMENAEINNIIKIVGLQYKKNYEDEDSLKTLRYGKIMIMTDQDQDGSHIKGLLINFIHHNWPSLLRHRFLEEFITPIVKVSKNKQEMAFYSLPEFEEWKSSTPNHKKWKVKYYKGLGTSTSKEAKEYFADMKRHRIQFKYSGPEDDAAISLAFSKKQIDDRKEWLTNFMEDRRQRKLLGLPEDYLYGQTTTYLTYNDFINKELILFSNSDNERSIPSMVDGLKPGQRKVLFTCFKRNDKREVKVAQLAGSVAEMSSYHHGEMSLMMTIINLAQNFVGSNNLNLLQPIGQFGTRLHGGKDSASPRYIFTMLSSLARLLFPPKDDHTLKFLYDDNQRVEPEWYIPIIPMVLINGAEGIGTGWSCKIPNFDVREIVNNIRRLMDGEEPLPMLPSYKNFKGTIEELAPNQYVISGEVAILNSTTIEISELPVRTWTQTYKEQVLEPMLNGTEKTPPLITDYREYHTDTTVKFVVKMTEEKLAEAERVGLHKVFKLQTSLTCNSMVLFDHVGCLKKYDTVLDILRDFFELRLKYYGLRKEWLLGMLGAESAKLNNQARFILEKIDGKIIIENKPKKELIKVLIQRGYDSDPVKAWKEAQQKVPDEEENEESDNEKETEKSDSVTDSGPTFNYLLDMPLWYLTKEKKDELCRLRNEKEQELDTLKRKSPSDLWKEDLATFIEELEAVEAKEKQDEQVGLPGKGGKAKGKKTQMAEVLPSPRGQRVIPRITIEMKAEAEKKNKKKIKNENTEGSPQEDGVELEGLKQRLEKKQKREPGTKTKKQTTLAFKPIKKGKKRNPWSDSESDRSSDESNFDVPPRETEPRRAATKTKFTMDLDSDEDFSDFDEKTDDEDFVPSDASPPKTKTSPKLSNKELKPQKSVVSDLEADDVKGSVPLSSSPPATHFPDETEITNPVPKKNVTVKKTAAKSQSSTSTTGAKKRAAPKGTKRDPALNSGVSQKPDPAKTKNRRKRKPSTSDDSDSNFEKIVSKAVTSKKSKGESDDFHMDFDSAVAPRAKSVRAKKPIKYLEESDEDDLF
# T1 sequence (P11388 whole entry): as above
smiles,measurement,setting,value
"Nc1nc(SCCc2ccccc2)c2nc[nH]c2n1 [NSC 35866, 2-amino-6-(phenylethylthio)-purine]","effect on DNA breaks induced by 3 μM etoposide, in words","human SCLC OC—NYH cells; 30 μM, repeated assay",no detectable effect
same,"effect on DNA breaks induced by 3 μM etoposide, in words",human SCLC OC—NYH cells; 100 μM,no detectable effect
same,"effect on DNA breaks induced by 3 μM etoposide, in words","human SCLC OC—NYH cells; 100 μM, repeated assay",no detectable effect
same,"effect on DNA breaks induced by 3 μM etoposide, in words","human SCLC OC—NYH cells; 300 μM, repeated assay",partly antagonised
same,"effect on DNA breaks induced by 3 μM etoposide, in words",human SCLC OC—NYH cells; 500 μM,partly antagonised
same,"effect on DNA breaks induced by 3 μM etoposide, in words",human SCLC OC—NYH cells; 1000 μM,completely antagonised
same,"DNA breaks induced by the drug alone, in words","human SCLC OC—NYH cells; concentrations up to 1000 μM, no etoposide",does not induce detectable levels of DNA breaks
same,concentrations at which DNA strand passage activity is inhibited,[1]; FIG. 2-A,above 250 μM
same,"inhibition of DNA strand passage (decatenation) activity, in words",[1]; FIG. 2-A and FIG. 5,clearly less potent in comparison with the reference compound ICRF-187
same,inhibition at 300 µM,"topoisomerase II α; 300 μM, in the presence of DNA, read-out: inhibition of the total ATPase activity",75%
same,"inhibition of ATPase activity in the presence of DTT, in words",topoisomerase II α; 10 mM DTT in the reaction buffer,could inhibit ATPase activity
same,pIC50,"topoisomerase II α; in the presence of DNA (DNA-stimulated), read-out: IC50, inhibition of ATPase activity",4.30 and 4.00 to 4.52
same,pIC50,"topoisomerase II α; without DNA, read-out: IC50, inhibition of DNA-independent ATPase activity",3.52

# Reference: patent US20090209535A1, “6-ETHER/THIOETHER-PURINES AS TOPOISOMERASE II CATALYTIC INHIBITORS AND THEIR USE IN THERAPY” (TOPOTARGET A/S, priority 2005, published 2009)
